These results are taken from article PMC6947424, “New Targeted Gold Nanorods for the Treatment of Glioblastoma by Photodynamic Therapy” (Journal of Clinical Medicine, 2019).

Residues, ends and D or L forms follow the SMILES beside them. *: point of attachment. Pyropheophorbide(a) = C=Cc1c(C)c2cc3nc(c4c5[nH]c(cc6nc(cc1[nH]2)C(C)=C6CC)c(C)c5C(=O)C4)[C@@H](CCC(=O)*)[C@@H]3C; Hexanoyl(6-maleimido) = O=C1C=CC(=O)N1CCCCCC(=O)*

Data set [1] in a line: Estimation of PS or peptide loading / molar extinction coefficient. The format is physicochemical. Particulars: water, 381 nm, from calibration curve. The method, then: The loading of the PS onto the AuNRs was estimated relying on the molar extinction coefficient (ε) calculated for the MI-K(Pyro)DKPPR-OH conjugate. A calibration curve was developed based on the different concentrations of the conjugate, in water, that correspond to different optical densities (OD). The ε was determined using Beer Lambert’s Law at 381 nm, which constitutes the wavelength of the Soret band of Pyro in water. (3) A = εLC where A, ε, L and C stand for the absorption (OD), molar absorptivity (extinction, L·mol^−1·cm^−1), length (cm) and concentration (mol·L^−1).
The concentration of Pyro in AuNRs@PEG-MI-K(Pyro)DKPPR-OH was calculated for a mass concentration of 1 mg·mL^−1. Moreover, the concentration of the peptide was also determined, as only 1 peptide unit is conjugated to 1 PS molecules. On this basis, the amount of peptide was also estimated to 1 mg·mL^−1 of the functionalized AuNRs.

For data set [2] the following is noted: in methanol; ref [16]; cited from earlier work. On the procedure:
Fluorescence quantum yields (Φf) were determined using a tetraphenyl porphyrin (TPP) solution as the fluorescence standard (Φf = 0.11 in toluene, taking into account solvent refractive index and absorption efficiencies. For the direct determination of ^1O2 quantum yield (ΦΔ), excitation was performed with a Xe-arc, the light was separated in a SPEX 1680, 0.22 µm double monochromator. Detection at 1270 nm was carried out through a PTI S/N 1565 monochromator and the emission was monitored by a liquid nitrogen cooled Ge-detector (EO-817L, North Coast Scientific Co, OH, USA). Rose Bengal (R ... || These findings are also consistent with the Φf value of Pyro reported by other authors (Φf = 0.3 and in methanol). […] This property can serve in the ...

The conditions of data set [3]: tends to aggregate easily; ref [3],[4],[14],[86]; cited from earlier work.

As for `C=Cc1c(C)c2cc3nc(c4c5[nH]c(cc6nc(cc1[nH]2)C(C)=C6CC)c(C)c5C(=O)C4)[C@@H](CCC(=O)NCCCC[C@H](NC(=O)CCCCCN1C(=O)C=CC1=O)C(=O)N[C@@H](CC(=O)O)C(=O)N[C@@H](CCCCN)C(=O)N1CCC[C@H]1C(=O)N1CCC[C@H]1C(=O)N[C@@H](CCCNC(=N)N)C(=O)O)[C@@H]3C` [MI-K(Pyro)DKPPR-OH] ({Hexanoyl(6-maleimido)}-K(Pyropheophorbide(a))DKPPR-OH), the “molar extinction coefficient (ε)” value in data set [1] was 64012 L/mol/cm.

Regarding `C=Cc1c(C)c2cc3nc(c4c5[nH]c(cc6nc(cc1[nH]2)C(C)=C6CC)c(C)c5C(=O)C4)[C@@H](CCC(=O)O)[C@@H]3C` [Pyro, pyropheophorbide-a, reference compound], the “Φf (fluorescence quantum yield)” value in data set [2] is given as 0.3. Moreover, the “solubility in biological media” value in data set [3] is on record as “poorly soluble in biological media”.
